For data set [1] the following is noted: cited from earlier work.
The nature of data set [2]: Chemical stability of ALL00179 in 100% ddH2O donor solution. Format: physicochemical. To be noted: for purity level after 72 hr: ALL00179 after 72 hr in ddH7O at RT; for initial purity (composition of ALL00179 sample): ALL00179 for 100% ddH2O donor solution. How it is done:
ALL00179 was placed in 100% ddH2O donor solution to check chemical stability. The initial purity of ALL00179 was 94.7% ALL00179, 5.3% ALL00180, and 0% CBD. After 72 hr in ddH7O at RT, the purity level was determined to be 86.8% ALL00179, 13.2% ALL00180 and 0% CBD.

Data set [3] is classed as in vitro ADME. To be noted: ALL00179 added to human plasma; for Percent Prodrug and CBD at time (min) 0*: 0 min (approximately 1 minute of mixing and withdrawal); for Percent Prodrug and CBD at time (min) 5: 5 min; for Percent Prodrug and CBD at time (min) 10: 10 min; for Percent Prodrug and CBD at time (min) 20: 20 min; for Percent Prodrug and CBD at time (min) 30: 30 min; for Percent Prodrug and CBD at time (min) 60: 60 min; for Percent Prodrug and CBD at time (min) 120: 120 min. As for the experimental part: Stability of the prodrug in human plasma was performed to monitor the conversion of ALL00179 to the monosubstituted form, ALL00180, and CBD. The molecular structure of ALL00180 and CBD are shown below: […]

Data set [4] in a line: In vitro diffusion study through microneedle-treated full thickness Yucatan pig skin (flow-through diffusion cell). To be noted: ALL00179 100% ddH2O donor solution, end of 48 h diffusion study. The data set is classed as in vitro ADME. The text has this:
The purpose of the diffusion study was to determine whether microneedle (MN) treated skin would allow the rapid permeation of a water-soluble prodrug of CBD (ALL00179) compared to CBD.
Briefly, full thickness Yucatan pig (YP) skin was used to perform the microneedle studies. The average thickness of the YP skin was approximately 1.0±0.1 mm. A PermeGear flow-through (In-Line, Hellertown, Pa.) diffusion cell system was used for the skin permeation studies. One hundred microneedle insertions were made into the skin before mounting in the flow-through diffusion cell by treating the skin 20 times with an array containing 5 microneedles. Each cell was charged with 250 μl of either 318 mM CBD (n=4) or ALL00179 (n=5) and occluded with rubber stoppers. Ten percent ethanol in water was used as a receiver solution. Samples were collected at six-hour intervals for a total of 48 hours. (See FIG. 1 for the permeation profile.)

Data set [5] in a line: Previous studies: permeation through intact skin (non-MN treated, 100% ddH2O donor solution). Format: in vitro ADME. How it is done:
Likewise, short lag times were observed throughout the study for the ALL00179-treated skin. […] In this study, the total amount of CBD delivered from a 25 mg ALL00179-containing donor solution was 0.2±0.1 mg total CBD equivalents in the skin and 1.0±0.2 mg total CBD equivalents in the receiver solution after 48 hr. This accounts for approximately 4.8% of the total ALL00179 in the donor solution.

The nature of data set [6]: Permeation from an optimized gel system of cannabidiol through intact dermatomed human skin. Format: in vitro ADME. To be noted: optimized gel system of cannabidiol (2.5% w/w), dosed every 12 hr. The text has this: As a comparison, permeation from an optimized gel system of cannabidiol (2.5% w/w) through intact dermatomed human skin, dosed every 12 hr, gave a flux of 5.2 nmol/cm^2/h. The total CBD flux from ALLL00179 after MN treatment of full thickness Yucatan pig skin was 63.2±11.4 nmol/cm^2/h, resulting in a 12.2 fold enhancement of flux.

[7] abbreviates: used in conjunction with microneedles.

We go through four compounds from patent publication USRE47885E1, “Use of cannabidiol prodrugs in pharmaceutical compositions” (Zynerba Pharmaceuticals, Inc., priority 2009, dated 2020).

As for `O=C1CC[C@@]2(O)[C@H]3Cc4ccc(O)c5c4[C@@]2(CCN3CC2CC2)[C@H]1O5` [naltrexone], in data set [1] (16% naltrexone hydrochloride gel, 6 healthy human volunteers, microneedle pretreatment), the naltrexone levels was 2.5 ± 1.1 ng/mL. For the same compound, in data set [1] (setting [7]), the “duration of steady state naltrexone concentrations” value was 48 h and the “time to steady state naltrexone concentrations” value is listed as “within two hours”.
As to `C=C(C)[C@@H]1CCC(C)=C[C@H]1c1c(O)cc(CCCCC)cc1OC(=O)C[N+](C)(C)C` [ALL00180], in data set [2], the “purity level after 72 hr” value worked out at 13.2% and the “initial purity (composition of ALL00179 sample)” value (“initial purity” below) worked out at 5.3%. In addition, in data set [3], the “Percent Prodrug and CBD at time (min) 0*” value came to 86.1%; the “Percent Prodrug and CBD at time (min) 5” value is 66.8%; the “Percent Prodrug and CBD at time (min) 10” value came to 44.9%; the “Percent Prodrug and CBD at time (min) 20” value is given as 22.9%. Moreover, in data set [3], the “Percent Prodrug and CBD at time (min) 30” value was found to be 10.6%; the “Percent Prodrug and CBD at time (min) 60” value worked out at 2.4%; the “Percent Prodrug and CBD at time (min) 120” value amounted to 0.0%. Further, the “composition of the donor solutions at the end of the study” value (“composition of the donor solutions” below) in data set [4] is 15.7±2.6%.
As to `C=C(C)[C@@H]1CCC(C)=C[C@H]1c1c(OC(=O)C[N+](C)(C)C)cc(CCCCC)cc1OC(=O)C[N+](C)(C)C.[Cl-].[Cl-]` [ALL00179], in data set [2], the “purity level after 72 hr” value amounted to 86.8% and the “initial purity” value turned out to be 94.7%. Further, in data set [3], the “Percent Prodrug and CBD at time (min) 0*” value turned out to be 9.2%; the “Percent Prodrug and CBD at time (min) 5” value is on record as 3.0%; the “Percent Prodrug and CBD at time (min) 10” value is 0.0%; the “Percent Prodrug and CBD at time (min) 20” value is listed as 0.0%. Moreover, in data set [3], the “Percent Prodrug and CBD at time (min) 30” value was 0.0%; the “Percent Prodrug and CBD at time (min) 60” value is reported as 0.0%; the “Percent Prodrug and CBD at time (min) 120” value is 0.0%. In data set [4], the “composition of the donor solutions” value amounted to 84.3±2.6%. The “flux through intact skin” value in data set [5] is listed as “no flux”.
In the case of `C=C(C)[C@@H]1CCC(C)=C[C@H]1c1c(O)cc(CCCCC)cc1O` [Cannabidiol], in data set [2], the “purity level after 72 hr” value amounted to 0% and the “initial purity” value was determined as 0%. In addition, in data set [3], the “Percent Prodrug and CBD at time (min) 0*” value stood at 4.7%; the “Percent Prodrug and CBD at time (min) 5” value turned out to be 30.2%; the “Percent Prodrug and CBD at time (min) 10” value is 55.1%; the “Percent Prodrug and CBD at time (min) 20” value is on record as 77.1%. Further, in data set [3], the “Percent Prodrug and CBD at time (min) 30” value is listed as 89.4%; the “Percent Prodrug and CBD at time (min) 60” value is given as 97.6%; the “Percent Prodrug and CBD at time (min) 120” value is given as 100%. For the same compound, in data set [4], the “composition of the donor solutions” value was determined as 0%. Further, in data set [5], the “drug detected in the skin” value is recorded as “none” and the “flux through intact skin” value is on record as “no flux”. In data set [6], this compound returned a flux of 5.2 nmol/cm^2/h.
